The results in this text go back to US9855257B2, “4-alkynyl imidazole derivative and medicine comprising same as active ingredient” (KAKEN PHARMACEUTICAL CO., LTD., priority 2013, dated 2018).

The target in experiment [1] is T1, rat EP4 receptor (Rattus norvegicus, UniProt P43114).
T1 construct: its translated region was integrated into the expression vector pShooter (Invitrogen); expressed in transfected cells; host or cells: COS-7 cells (Cercopithecus aethiops kidney), transiently co-transfected with ratEP4-pShooter and a CRE-LUC reporter vector
T1 sequence (P43114 whole entry): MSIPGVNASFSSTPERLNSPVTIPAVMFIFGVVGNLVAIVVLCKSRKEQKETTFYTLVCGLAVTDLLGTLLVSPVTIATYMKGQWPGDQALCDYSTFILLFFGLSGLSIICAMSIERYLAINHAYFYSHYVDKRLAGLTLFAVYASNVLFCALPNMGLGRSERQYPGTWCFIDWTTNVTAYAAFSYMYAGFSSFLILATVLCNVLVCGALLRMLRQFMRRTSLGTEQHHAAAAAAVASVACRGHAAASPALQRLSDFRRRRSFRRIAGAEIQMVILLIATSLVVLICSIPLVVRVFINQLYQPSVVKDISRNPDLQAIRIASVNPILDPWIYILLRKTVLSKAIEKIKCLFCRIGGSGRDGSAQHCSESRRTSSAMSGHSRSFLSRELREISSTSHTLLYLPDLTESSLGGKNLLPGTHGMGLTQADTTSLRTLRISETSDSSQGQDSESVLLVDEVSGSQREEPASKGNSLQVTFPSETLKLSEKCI
The experiment can be described thus: Rat EP4 receptor antagonistic action by the reporter assay method. In kind it is cell-based. Conditions: COS-7 cells expressing rat EP4 receptor, CRE-LUC reporter, PGE2 1×10^−8 mol/L; geometric mean of three cases; read-out: Intensity of EP4 Receptor Antagonistic Activity IC50. The procedure:
Test for Evaluating the Rat EP4 Receptor Antagonistic Action by the Reporter Assay Method
The first step was the cloning of the rat EP4 receptor. Total RNA was prepared from the kidney extracted from rats. With the total RNA used as a template, the rat EP4 receptor gene was cloned by RT-PCR and its translated region was integrated into the expression vector pShooter (Invitrogen) to prepare a rat EP4 receptor expressing vector (ratEP4-pShooter).
In the next step, rat EP4 receptor expressing cells for use in the reporter assay were prepared. COS-7 cells (derived from the kidney of Cercopithecus aethiops) were cultured in Dulbecco's Modified Eagle Medium (DMEM) (supplemented with 10% fetal bovine serum) in a 75-cm^2 cell culture flask. After the cells proliferated to a subconfluent state, the medium was removed and rinsed with phosphate buffered physiological saline (PBS). Trypsin-EDTA and a growth medium were used to recover the cells, which were then centrifuged. The supernatant was removed and the cells were suspended in DMEM. The cell suspension was seeded on a 96-well plate at a density of 2×10^4 cells/100 μL/well and cultured. The DMEM was mixed with Plus reagent, Lipofectamine 2000, the rat EP4 receptor expressing vector (ratEP4-pShooter) and a CRE-LUC reporter vector (CLONTECH) to prepare a transfection solution. Three hours after the seeding of the cells, 50 μL of the medium was removed and 50 μL/well of the transfection solution was added, followed by culture overnight. Negative control cells were prepared using pShooter in place of the receptor expressing vector. The cells were seeded on a 96-well plate for reporter assay and cultured.
The medium on the 96-well plate was removed and a test compound was added in an amount of 50 μL/well. After ca. 30-min culture, a PGE2 solution (2×10^−8 mol/L) was added in an amount of 50 μL/well (final concentration of PGE2: 1×10^−8 mol/L). As a PGE2-free control, there were provided wells to which a test medium had been added in an amount of 50 μL/well. About three hours later, the medium was removed and reporter assay was performed in accordance with the protocol accompanying the Steady-Glo Luciferase Assay System kit. Luminous intensity was measured with a microplate reader (Fusion-FPα, PerkinElmer) and EP4 receptor antagonistic activity (%) was determined by the following calculation formula: EP4 receptor antagonistic activity (%)=[1−(RLU(A,X)−RLU(0))/(RLU(PGE2)−RLU(0))]×100 RLU(A,X): Luminous intensity expressed in relative luminescence units (RLU) for the case where the test compound (A) X (mol/L) and PGE2 10^−8 mol/L were both added; RLU(PGE2): Luminous intensity for the case where only PGE2 10^−8 mol/L was added; RLU(0): Luminous intensity for the case where neither test compound nor PGE2 was added.
In addition, a dose-response curve was plotted from the EP4 receptor antagonistic activities at varying concentrations of each test compound and using the following approximation formula, the IC50 (the concentration of the test compound required to inhibit the PGE2 inducing activity by 50%) was calculated to determine the intensity of the compound's EP4 receptor antagonistic activity. The results are shown in Table 2: Y=Bottom+(Top−Bottom)/{1+10^(Log IC50−Log X)} Bottom: 0 Top: 100 X: Concentration of the test compound (mol/L) Y: EP4 receptor antagonistic activity (%)

The subject of experiment [2] is Adjuvant Induced Arthritis in Rats. The experiment can be described thus: Anti-inflammatory and analgesic effects on adjuvant induced arthritis in rats. Type of experiment: in vivo, rat. The arrangement: Percent Effectiveness: scale not given: direction of the effect not stated beside the values. The conditions noted are these: Lewis male rats, oral 0.3 mg/kg once a day, day 9 to day 17 after adjuvant; for Percent paw edema suppression: measured at day 18, means of 8˜10 cases; for Percent Effectiveness: pain threshold at day 18, 8˜10 cases. The method, then:
Test for Evaluating Anti-Inflammatory and Analgesic Effects on Adjuvant Induced Arthritis in Rats
The animals were Lewis male rats (6-week old). An adjuvant solution (2 mg/mL) was administered intradermally to the footpad of the left hind leg of each animal at a dose of 0.1 mL to create an arthritis model. Paw volume was measured with a paw volume meter (PLETHYSMOMETER, Ugo Basile Model 7141). For evaluation of pain thresholds, a probe fitted to the sensor site of Pressure Application Measurement (PAM, Ugo Basile Model 38500) was used to turn the foot sole of a rat upward (dorsiflexion) until it gave an indication of pain or discomfort (vocalization) and the load being applied was measured. Eight days after the treatment with the adjuvant, the paw volume and pain threshold of each treated foot were measured and the animals were grouped for oral administration of each test compound (0.3 mg/kg) which was performed for nine days on a once-a-day schedule starting at day 9 and ending at day 17 after the treatment. At day 18 after the treatment, the paw volume and pain threshold of each […] foot were measured.
The anti-inflammatory effect of the test compound was confirmed using the percent paw edema suppression as an indicator. Percent paw edema suppression (%)=[(paw volume change in the control group−paw volume in each treatment group)/(paw volume change in the control group−paw volume change in the non-treatment group)]×100
As for the analgesic effect, the animals in the test compound group that had nociceptive thresholds greater than [(the mean nociceptive threshold of the control group)+2×standard deviation] were found “effective animals” and the percent effectiveness of each compound was calculated.

For experiment [3], the system named is Carrageenin Induced Hyperalgesia in Rats. Kind of experiment: Analgesic effect on carrageenin induced hyperalgesia in rats. The conditions noted are these: Rattus norvegicus, 2 h; SD male rats, oral 10 mg/5 mL/kg six hours after carrageenin, nociceptive threshold (Randall-Selitto) two hours after administration; 5˜7 cases; read-out: Percent Effectiveness. Type of experiment: in vivo. The method, then: Test for Evaluating Analgesic Effect on Carrageenin Induced Hyperalgesia in Rats
The animals were SD male rats (5-week old). Before treatment with carrageenin (or distilled water), the rats were measured for nociceptive thresholds in their right hind leg by the Randall-Selitto method and divided into a carrageenin treatment group and a non-treatment group to provide uniformity in nociceptive threshold. The carrageenin treatment group was given a 1 w/v % carrageenin solution and the non-treatment group given distilled water, each administered subcutaneously to the footpad of the right hind leg at a dose of 0.1 mL. Five hours after the treatment, the nociceptive thresholds were measured and the individuals with decreased thresholds were selected and grouped such that there was no inter-group difference in threshold. Six hours after the treatment, each test compound was orally administered at a dose of 10 mg/5 mL/kg. The control group was administered 0.5% methylcellulose. Two hours after the administration of the test compound (8 hours after the treatment), the nociceptive threshold was measured. The animals in the test compound group that had nociceptive thresholds greater than [(the mean nociceptive threshold of the control group)+2×standard deviation] were found “effective animals” and the percent effectiveness of each compound was calculated.

Each structure is given as a SMILES string.

As for `CC(C)(O)C#Cc1nc(Cl)n(Cc2ccc(C(F)(F)F)cc2)c1C(=O)NC[C@H]1CC[C@H](C(=O)O)CC1` [Compound 1, trans-4-({2-Chloro-4-(3-hydroxy-3-methyl-1-butyn-1-yl)-1-[4-(trifluoromethyl)benzyl]-1H-imidazole-5-carboxamido}methyl)cyclohexanecarboxylic acid], the IC50 in experiment [1] was 23.8 nM. Further, in experiment [2], the “Percent paw edema suppression” value was determined as 54% and the “Percent Effectiveness” value came to 30%.
The corresponding values for `CC(C)(O)C#Cc1nc(Cl)n(Cc2ccc(C(F)(F)F)cc2)c1C(=O)NCc1ccc(C(=O)O)cc1` [Compound 2, 4-({2-Chloro-4-(3-hydroxy-3-methyl-1-butyn-1-yl)-1-[4-(trifluoromethyl)benzyl]-1H-imidazole-5-carboxamido}methyl)benzoic acid] are 14.1 nM, 21% and 38%.
As to `CC(C)(O)C#Cc1nc(Cl)n(Cc2ccc(C(F)(F)F)cc2)c1C(=O)NC1(c2ccc(C(=O)O)cc2)CC1` [Compound 4], the IC50 in experiment [1] stood at 3 nM.
Take `O=C(NCC1CCC(C(=O)O)CC1)c1c(C#CC2(O)CCCC2)nc(Cl)n1Cc1ccc(C(F)(F)F)cc1` (stereo not shown) [Compound 16]: the 50% inhibitory concentration (IC50) in experiment [1] worked out at 7.3 nM.
On the same count and under the same terms, the same measure for `CC(C)(O)C#Cc1nc(C2CC2)n(Cc2ccc(C(F)(F)F)cc2)c1C(=O)NCc1ccc(C(=O)O)cc1` [Compound 20, 4-({2-cyclopropyl-4-(3-hydroxy-3-methyl-1-butyn-1-yl)-1-[4-(trifluoromethyl)benzyl]-1H-imidazole-5-carboxamido}methyl)benzoic acid]: 64.6 nM.
For the compound `Cc1ccc(Cn2c(Cl)nc(C#CC(C)(C)O)c2C(=O)NC[C@H]2CC[C@H](C(=O)O)CC2)cc1` [Compound 21, trans-4-{[2-Chloro-4-(3-hydroxy-3-methyl-1-butyn-1-yl)-1-(4-methylbenzyl)-1H-imidazole-5-carboxamido]methyl}cyclohexanecarboxylic acid], the IC50 in experiment [1] turned out to be 26.4 nM. Besides, in experiment [2], the “Percent paw edema suppression” value was 53% and the “Percent Effectiveness” value turned out to be 20%.
Regarding `COC(C)(C)C#Cc1nc(Cl)n(Cc2ccc(C(F)(F)F)cc2)c1C(=O)NCc1ccc(C(=O)O)cc1` [Compound 41], the IC50 in experiment [1] came out at 8.4 nM.
With `CC(C)(O)C#Cc1nc(Cl)n(CCOc2ccc(Cl)cc2)c1C(=O)NCc1ccc(C(=O)O)cc1` [Compound 44], the responders at 10 mg/kg in experiment [3] came to 50%. Moreover, the IC50 in experiment [1] came to 17.5 nM.
The corresponding values for `COC(C)(C)C#Cc1nc(Cl)n(CCOc2ccc(Cl)cc2)c1C(=O)NCc1ccc(C(=O)O)cc1` [Compound 45] are 50% and 5.1 nM.
Consider `COC(C)(C)C#Cc1nc(Cl)n(Cc2ccc(OC(F)(F)F)cc2)c1C(=O)N[C@@H](C)c1ccc(C(=O)O)cc1` [Compound 50], for which the 50% inhibitory concentration (IC50) in experiment [1] came to 1.1 nM.
Same read-out and setting: the value for `COC(C)(C)C#Cc1nc(Cl)n(Cc2ccc(OC(F)F)cc2)c1C(=O)NCC1CCC(C(=O)O)CC1` (stereo not shown) [Compound 51] was 7.9 nM; that for `COC(C)(C)C#Cc1nc(Cl)n(Cc2ccc(OC(F)F)cc2)c1C(=O)NCc1ccc(C(=O)O)cc1` [Compound 52] was 7.9 nM.
Same read-out and setting: the same measure for `COC(C)(C)C#Cc1nc(Cl)n(Cc2cccc(OC(F)F)c2)c1C(=O)NCc1ccc(C(=O)O)cc1` [Compound 54]: 16.1 nM; for `COC(C)(C)C#Cc1nc(Cl)n(Cc2ccc(F)cc2)c1C(=O)NCc1ccc(C(=O)O)cc1` [Compound 56, 4-{[2-Chloro-1-(4-fluorobenzyl)-4-(3-methoxy-3-methyl-1-butyn-1-yl)-1H-imidazole-5-carboxamido]methyl}benzoic acid]: 49.9 nM.
As for `COC(C)(C)C#Cc1nc(Cl)n(Cc2ccc(C(F)F)cc2)c1C(=O)NC[C@H]1CC[C@H](C(=O)O)CC1` [Compound 60, trans-4-({2-Chloro-1-[4-(difluoromethyl)benzyl]-4-(3-methoxy-3-methyl-1-butyn-1-yl)-1H-imidazole-5-carboxamido}methyl)cyclohexanecarboxylic acid], the IC50 in experiment [1] was found to be 10.2 nM.
For `CC(C)(C#Cc1nc(Cl)n(CCOc2ccc(Cl)cc2)c1C(=O)NC[C@H]1CC[C@H](C(=O)O)CC1)CO` [Compound 61, Trans-4-({2-chloro-1-[2-(4-chlorophenoxy)ethyl]-4-(4-hydroxy-3,3-dimethyl-1-butyn-1-yl)-1H-imidazole-5-carboxamido}methyl)cyclohexanecarboxylic acid], the IC50 in experiment [1] was 26.6 nM.
Same read-out and setting: the value for `COC(C)(C)C#Cc1nc(C(F)F)n(CCOc2ccc(Cl)cc2)c1C(=O)NCc1ccc(C(=O)O)cc1` [Compound 64] was 26.1 nM.
Turning to `COC(C)(C)C#Cc1nc(Cl)n(Cc2ccc(C)cc2)c1C(=O)NC1(c2ccc(C(=O)O)cc2)CC1` [Compound 67, 4-(1-{2-Chloro-4-(3-methoxy-3-methyl-1-butyn-1-yl)-1-(4-methylbenzyl)-1H-imidazole-5-carboxamido}cyclopropyl)benzoic acid], the responders at 10 mg/kg in experiment [3] stood at 100%. In experiment [1], the IC50 was determined as 2.1 nM.
As for `Cc1ccc(Cn2c(Cl)nc(C#CC(C)(C)O)c2C(=O)NC2(c3ccc(C(=O)O)cc3)CC2)cc1` [Compound 68], in experiment [1], the IC50 amounted to 6.1 nM.
